# Source: US20160051541A1 (CHANRX CORPORATION, priority 2013, published 2016)
# Where two headings read alike, the source gives them in different places.
# Assays:
# [1] = Preliminary studies of daily use over 7, 10 and 14 days; assay type: in vivo; details: 75, 100, 125 and 150 mg a day over 7, 10 and 14 days
# [2] = Example 2: daily doses of vanoxerine for 11 consecutive days in 12 subjects (PK, heart rate, blood pressure); assay type: in vivo, human; details: for PK Data (Mean +/- SD) T1/2 / PK Data (Mean +/- SD) CMax: 11 consecutive days
# [3] = Example 1: plasma concentrations of vanoxerine and metabolites after a 300 mg dose in patients; assay type: in vivo, human; details: for concentration at 1 h / concentration at 3 h / concentration at 4 h / concentration at 6 h / concentration at 8 h / concentration at 12 h / concentration at 24 h / concentration at 0.5 h: human, plasma, 300 mg; for concentration at 0.5 h: .5 h
# Experimental: Each patient gave blood samples before administration of their dose, and then again at nine further time points, 30 minutes after administration, 1, 2, 3, 4, 6, 8, 12, and 24 hours post administration.
# [4] = Recovery of radioactivity labeled vanoxerine in rats; assay type: in vivo
# [5] = Pharmacokinetic tests in dogs; assay type: in vivo; details: dog, plasma; repetitive dosing in dogs
# [6] = Example 4: vanoxerine daily for 7 days in four patients; assay type: in vivo, human; details: 50, 100 and 150 mg daily, all patients
# [7] = cited from earlier work
# [8] = Example 3: vanoxerine daily for 14 days in fourteen healthy patients; assay type: in vivo, human
# Experimental: A standardized meal was served 15 minutes prior to each dosing.
# [9] = Further studies of half-life and steady state on oral dosing; assay type: in vivo; details: in some cases
# atrial fibrillation = details: canines, cited from earlier work
# [10] = 10 patients, 1.00 = below LLOQ, read-out: High concentration group average
# [11] = 15 patients, 1.00 = below LLOQ, read-out: Low concentration group average
smiles,measurement,setting,value
"Fc1ccc(C(OCCN2CCN(CCCc3ccccc3)CC2)c2ccc(F)cc2)cc1 [Vanoxerine, 1-[2-[bis(4-fluorophenyl)methoxy]ethyl]-4-(3-phenylpropyl)piperazine]",heart rate and systolic blood pressure,[1],increased heart rate and systolic blood pressure
same,plasma levels detectable,[2]; 25 mg daily,not detectable after 8 hours
same,PK Data (Mean +/- SD) T1/2,"[2]; 50 mg daily, range 4.71-110.57",49.39 +/− 26.18 hr (4.71-110.57)
same,PK Data (Mean +/- SD) CMax,[2]; 75 mg daily,27.4 ± 15.5 ng/mL
same,PK Data (Mean +/- SD) T1/2,"[2]; 75 mg daily, range 10.26-116.67",52.53 +/− 37.46 (10.26-116.67) hr
same,PK Data (Mean +/- SD) CMax,[2]; 100 mg daily,40.2 ± 26.6 ng/mL
same,PK Data (Mean +/- SD) T1/2,"[2]; 100 mg daily, range 5.56-125.00",15.38 +/− 43.55 (5.56-125.00) hr
same,plasma levels detectable,"[2]; 50, 75 and 100 mg doses",detectable at 24 hours
same,steady state reached,"[2]; 50, 75 and 100 mg doses daily",≤ 8 days
same,heart rate and systolic blood pressure,[2]; 75 and 100 mg doses daily,increased slightly in most subjects
same,PK linearity,"[2]; across 50, 75 and 100 mg doses",linear and the dose proportional
same,half-life of the drug when daily doses are given,[2]; daily doses,increased half-life
same,Tmax,"[2]; human, plasma, printed under the 50 mg line, +- 0.5 hr (0.5-2.0)",1.27 h
same,concentration at 1 h,[3]; [10],115 ng/mL
same,concentration at 3 h,[3]; [10],156 ng/mL
same,concentration at 4 h,[3]; [10],96.1 ng/mL
same,concentration at 6 h,[3]; [10],57.1 ng/mL
same,concentration at 8 h,[3]; [10],43.2 ng/mL
same,concentration at 12 h,[3]; [10],29.3 ng/mL
same,concentration at 24 h,"[3]; 10 patients, read-out: High concentration group average",3.07 ng/mL
same,concentration at 0.5 h,[3]; [10],37.7 ng/mL
same,concentration at 1 h,[3]; [11],40.1 ng/mL
same,concentration at 3 h,[3]; [11],31.4 ng/mL
same,concentration at 4 h,[3]; [11],24.4 ng/mL
same,concentration at 6 h,[3]; [11],16.7 ng/mL
same,concentration at 8 h,[3]; [11],11.8 ng/mL
same,concentration at 12 h,[3]; [11],6.31 ng/mL
same,concentration at 24 h,[3]; [11],5.01 ng/mL
same,concentration at 0.5 h,[3]; [11],17 ng/mL
same,"plasma levels, highest at any time point",[3]; low concentration group,~40 ng/mL
same,recovery of administered radioactivity,[4],incomplete
same,half-life,[5],~66 h
same,steady-state levels achieved,[6],within one week
same,side-effects,[7]; daily repetitive dose of 50 mg,no side-effects should be expected
same,side-effects,[7]; higher doses,"some effects were seen with regard to concentration difficulties, increase systolic blood pressure, asthenia, and a feeling of drug influence"
same,steady state serum levels reported within,"[8]; 25, 75 and 125 mg daily for 14 days",9 to 11 days
same,adverse events,"[8]; 25, 75 and 125 mg daily for 14 days, standardized meal before dosing",No significant adverse events
same,"serum levels, dose proportionality",[8]; higher doses compared with lower doses,disproportionately and statistically greater levels at higher doses
same,steady state achieved within,[9]; oral dosing,≤ 3 days
same,half-life,"[9]; plasma, oral",≤ 125 h
COc1ccccc1OCC(O)CN1CCN(CC(=O)Nc2c(C)cccc2C)CC1 (stereo not drawn) [ranolazine],anti-AF effect,atrial fibrillation; clinically relevant conditions,suppress atrial fibrillation
same,effects on ventricular myocardium,atrial fibrillation,minimal effects on ventricular myocardium
